Experimental data from article PMC11590367, “Characterization of novel small molecule inhibitors of estrogen receptor-activation function 2 (ER-AF2)” (Breast Cancer Research : BCR, 2024).
Entries after “also recorded” stand apart in the source; their conditions may differ.

What was measured:
[1] = Precipitation in MST assay buffer; format: physicochemical; settings: 2% DMSO, 0.03 to 1000 µM
Method: MST was used to validate the direct binding and measure the binding affinities between the lead compounds and the recombinant ER-LBD. ER-LBD was labeled with red fluorescent dye using a Protein Labeling Kit RED-NHS 2nd Generation (Nanotemper MO-L011) according to the manufacturer’s protocol. The compounds were serially diluted 1:2 in 100% DMSO from 50 to 0.0015 mM, then added to 10 nM of labeled ER protein in the assay buffer (25 mM Tris, pH 8.4, 150 mM NaCl, 20 µM E2, 0.1 mM PMSF, 0.05% Tween20) at final concentrations of 0.03 to 1000 µM. Recombinant proteins in cell free assays are not affected by DMSO concentrations up to 10%. A final concentration of 2% DMSO was chosen for MST as the compounds required this concentration to be soluble in the assay buffer. […] The corresponding data points were removed from the analysis. […] Each protein/compound mixture was then loaded into Monolith Premium Capillaries (Nanotemper MO-K025). All assays were conducted with medium MST power and 20% excitation power. Data analysis and Kd estimation were performed with the MO Affinity Analysis software from Nanotemper.

[2] = molecular target: T1, ER-SRC3 interaction in MCF7 cells (Homo sapiens, UniProt P03372); assay: Proximity ligation assay (PLA), MCF7; format: cell-based; settings: 10 µM, 48 h, E2 stimulation
T1 construct: endogenous in cells; host or cells: MCF7 or TamR3 cells
Method: MCF7 or TamR3 cells were starved for 72 h and then seeded onto PEI coated coverslips in a 6-well plate at 1 × 10^5 cells/well. […] […] […] Coverslips were then permeabilized with 0.05% Triton X-100 for 5 minutes at room temperature. The Duolink In Situ Detection Reagents Red kit from Millipore Sigma (DUO92008) was used for blocking and PLA according to the manufacturer’s protocol. Primary antibodies, Estrogen Receptor alpha antibody (F-10) (sc-8002) and Rabbit anti-SRC3 antibody (A300-348 A), were diluted 1:50 in antibody diluent.

T47D cells = assay: PrestoBlue viability assay, T47D; format: cell-based; settings: 1 nM E2, 72 h treatment, ± SD of 3 biological replicates
Method: (§1) T47D, MCF7, TamR3, and MDA-MB-231 cells were starved for 72 h and then seeded into black clear-bottom 96-well plates (Corning Life Sciences Cat#3904) at 20,000 cells/well (T47D, MCF7, TamR3) or 5,000 cells/well (MDA-MB-231). […] 20 µl of PrestoBlue Cell Viability Reagent (Thermo Fisher A13262) was added to each well and incubated at 37 °C for 1 h. Fluorescence intensity was measured using the TECAN F500 plate reader with emission and excitation wavelengths of […], respectively.

[3] = test system: ER target genes (cyclinD1, CDC2, E2F, PR, pS2) in TamR3 cells; assay: Real-time PCR of ER target genes, TamR3; format: cell-based; settings: 72 h
Method: (§2) Total RNA was extracted using TRIzol, 72 h post-treatment. cDNA synthesis was conducted using the Maxima First Strand cDNA Synthesis Kit for RT-qPCR (Thermo K1641) according to the manufacturer’s protocol. RT-PCR was conducted on the QuantStudio 7 Pro instrument and expression fold change was calculated using 2−ΔΔCt method normalized to 18s.

[4] = test system: ER target genes (cyclinD1, CDC2, E2F, PR, pS2) in MCF7 cells; assay: Real-time PCR of ER target genes, MCF7; format: cell-based; settings: 10 µM, 72 h, E2 stimulation
Method: as §2

[5] = molecular target: ER-D538G - SRC3 interaction (Homo sapiens, UniProt P03372, D538G); assay: Proximity ligation assay, ER-D538G mutant; format: cell-based; settings: PLA, 10 µM
Method: (§3) MCF7 or TamR3 cells were starved for 72 h and then seeded onto PEI coated coverslips in a 6-well plate at 1 × 10^5 cells/well. For the E2 experiments, the cells were treated the following day with 10 µM of ER-AF2 inhibitor for 24 h, with E2 added 1 h before fixation. […] 24 h post-treatment, cells were fixed in methanol:acetone (3:1). Coverslips were then permeabilized with 0.05% Triton X-100 for 5 minutes at room temperature. The Duolink In Situ Detection Reagents Red kit from Millipore Sigma (DUO92008) was used for blocking and PLA according to the manufacturer’s protocol. Primary antibodies, Estrogen Receptor alpha antibody (F-10) (sc-8002) and Rabbit anti-SRC3 antibody (A300-348 A), were diluted 1:50 in antibody diluent.

[6] = molecular target: ER-Y537S - SRC3 interaction (Homo sapiens, UniProt P03372, Y537S); assay: Proximity ligation assay, ER-Y537S mutant; format: cell-based; settings: PLA, 10 µM
Method: as §3

MDA-MB-231 cells = assay: PrestoBlue viability assay, MDA-MB-231; format: cell-based; settings: dose response 50 to 0.01 µM, 1 nM E2
Method: as §1

[7] = molecular target: T2, recombinant ER-LBD (residues 298–554) (Homo sapiens, UniProt P03372); assay: Microscale thermophoresis (MST) direct binding; settings: averaged from three independent assays, 20 µM E2 in buffer, read-out: Kd (binding affinity to ER-LBD)
T2 construct: The ER-LBD (residues 298–554) was cloned into pET28a bacterial expression plasmid; His-tag (N); made in house; host or cells: E. coli BL21-DE3 (with pRARE)
Method: The ER-LBD (residues 298–554) was cloned into pET28a bacterial expression plasmid with an N-terminal His-tag. pET28a-His-ER and pRARE were transformed into E. coli (BL21-DE3). Bacteria were grown at 37 [drawing 1] C overnight, and then diluted 1:20 the following day in LB media and grown at 37 [drawing 2] C until the OD600 reached 0.5. Protein expression was induced with 1 mM IPTG, and 50 µM E2 was added to the media. Cells were then grown for 5 h at 25 °C. Bacterial pellets were collected by centrifugation at 13,000 rpm for 7 min. Pellets were resuspended in lysis buffer (25 mM Tris, pH 8.4, 150 mM NaCl, 20 µM E2, 1 mM DTT, 0.1 mM PMSF, cOmplete protease inhibitor (Roche)) then sonicated and centrifuged to obtain the soluble extracts. ER-LBD was purified using affinity chromatography with Ni-NTA agarose resin. The presence of the ER-LBD in eluted fractions was confirmed by SDS-PAGE and validated by mass spectrometry. The eluted protein was further purified by size exclusion chromatography (s75), and fractions containing the ER-LBD protein were pooled and concentrated using Amicon Ultra centrifugal filters (3 K MWCO).
MST was used to validate the direct binding and measure the binding affinities between the lead compounds and the recombinant ER-LBD. […]

ER-Y537S - SRC3 interaction, sequence (P03372 whole entry Y537S): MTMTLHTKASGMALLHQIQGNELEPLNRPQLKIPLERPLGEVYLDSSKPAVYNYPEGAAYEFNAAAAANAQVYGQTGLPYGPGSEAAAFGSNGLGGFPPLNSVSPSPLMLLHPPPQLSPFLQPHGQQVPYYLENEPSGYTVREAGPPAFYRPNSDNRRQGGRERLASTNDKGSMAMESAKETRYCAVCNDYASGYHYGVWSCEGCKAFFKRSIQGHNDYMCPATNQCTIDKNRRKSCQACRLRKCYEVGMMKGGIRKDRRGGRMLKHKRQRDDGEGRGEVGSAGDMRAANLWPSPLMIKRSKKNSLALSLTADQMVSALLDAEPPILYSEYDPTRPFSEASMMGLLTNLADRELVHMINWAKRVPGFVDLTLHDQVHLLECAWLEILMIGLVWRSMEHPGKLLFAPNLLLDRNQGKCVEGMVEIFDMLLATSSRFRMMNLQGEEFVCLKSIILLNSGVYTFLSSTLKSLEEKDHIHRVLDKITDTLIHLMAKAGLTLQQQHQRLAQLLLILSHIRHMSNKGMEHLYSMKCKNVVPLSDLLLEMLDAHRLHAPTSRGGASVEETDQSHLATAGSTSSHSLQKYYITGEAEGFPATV
ER-D538G - SRC3 interaction, sequence (P03372 whole entry D538G): as the sequence (P03372 whole entry Y537S) above, with S537Y, D538G counted along it
T2 sequence (P03372 298-554): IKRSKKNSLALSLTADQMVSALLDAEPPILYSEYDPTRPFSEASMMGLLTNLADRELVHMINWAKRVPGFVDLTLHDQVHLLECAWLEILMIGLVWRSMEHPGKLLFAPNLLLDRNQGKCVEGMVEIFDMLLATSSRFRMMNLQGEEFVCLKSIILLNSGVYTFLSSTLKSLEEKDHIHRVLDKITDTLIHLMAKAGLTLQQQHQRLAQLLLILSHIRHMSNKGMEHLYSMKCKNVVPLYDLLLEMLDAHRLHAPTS
T1 sequence (P03372 whole entry): as the sequence (P03372 whole entry Y537S) above, with S537Y counted along it

What does the source list for `Cc1cccn2c(CNCc3cccc(N(C)C)n3)cnc12` [VPC-260724]?
Precipitation after addition of ER protein [1]: did not exhibit precipitation at any concentration; ER-SRC3 interactions (PLA signals per nuclei), MCF7 [2]: significantly reduced ER-SRC3 interactions; IC50 (T47D cells): 7.42 ± 2.12 µM; IC50 (T47D cells; Homo sapiens, T47D, 72 h): 7.4 µM; ER target gene expression in TamR3, combined with tamoxifen ([3]; 10 µM with 1 µM Tamoxifen): markedly reduced; mRNA levels of ER target genes, TamR3 ([3]; 10 µM, E2 stimulation): significant decrease; mRNA levels of ER target genes, MCF7 [4]: significant decrease; Interaction between SRC3 and ER-D538G [5]: inhibited the interaction; Interaction between SRC3 and ER-Y537S [6]: inhibited the interaction; Effect on viability of ER-negative MDA-MB-231 cells (MDA-MB-231 cells): minimal impact; also recorded: did not affect the viability; Kd [7]: 85.2 ± 32.7 µM
